Experimental findings from the supplement of paper PMC12513837 are described below.

± gives the standard deviation of the averaged measurements.

Compound in the test: CC(=O)N1CCc2c(c(N3CCCc4cc(-c5cnn(C)c5)c(C(F)F)cc43)nn2C2CCC(CN3CCN(c4ccc5c(c4)C(=O)N(C4CCC(=O)NC4=O)C5=O)CC3)CC2)C1 [CBPD-409]
Kind of test: AUC of viability dose-response curve (relative to vehicle, 8 doses up to 10 µM) (fraction); higher = less sensitive (more viable); extreme values may be limits of the assay. As to the method: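 PRISM multiplexed pooled barcoded cell line viability screen at the Broad Institute, 887 cancer cell lines treated with CBPD-409 (p300/CBP PROTAC degrader) at 8 concentrations in threefold dilution, top dose 10 µM. The read-out is the area under the dose-response curve of relative viability versus vehicle (n=3). AUC < 0.3 is called strongly sensitive and AUC > 0.8 resistant.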
Regarding G292CLONEA141B1_BONE, the “AUC of viability dose-response curve” value was found to be 0.585 ± 0.31.

For SW900_LUNG, the “AUC of viability dose-response curve” value came to 0.853. With C32_SKIN, the “AUC of viability dose-response curve” value stood at 0.562. Take EW8_BONE: the “AUC of viability dose-response curve” value was found to be 0.946.

In the case of EGI1_BILIARY_TRACT, the “AUC of viability dose-response curve” value was found to be 0.872. Consider AU565_BREAST, for which the “AUC of viability dose-response curve” value stood at 1. In the case of DKMG_CENTRAL_NERVOUS_SYSTEM, the “AUC of viability dose-response curve” value turned out to be 0.733. For OE19_OESOPHAGUS the value was 0.884; for SCLC21H_LUNG, 1. On to “BLUE1_HAEMATOPOIETIC_AND_LYMPHOID_TISSUE”, for which the “AUC of viability dose-response curve” value was 0.311. Take KE39_STOMACH: the “AUC of viability dose-response curve” value was found to be 1. For SW1353_BONE the value was 1; for MEL290_UVEA, 0.688; for HEC108_ENDOMETRIUM, 0.693. For MHHNB11_AUTONOMIC_GANGLIA the value was 0.488. As for NUGC4_STOMACH, the figure is 0.344. Take TCCSUP_URINARY_TRACT: the “AUC of viability dose-response curve” value came to 1.

Take “RCHACV_HAEMATOPOIETIC_AND_LYMPHOID_TISSUE”: the “AUC of viability dose-response curve” value was determined as 0.298. On to 94T778_SOFT_TISSUE, for which the “AUC of viability dose-response curve” value worked out at 0.951. EFO21_OVARY: the “AUC of viability dose-response curve” value is 0.764. As for SNU2372_BREAST, the figure is 1. For NCIH1792_LUNG the value was 0.59; for PACADD119_PANCREAS, 0.991.

9505BIK_PANCREAS: the “AUC of viability dose-response curve” value was 1.

With T47D_BREAST, the “AUC of viability dose-response curve” value worked out at 0.593. As to SMSCTR_SOFT_TISSUE, the “AUC of viability dose-response curve” value is 0.847. As for PMFKO14_LARGE_INTESTINE, the figure is 0.705.

Consider CAL148_BREAST, for which the “AUC of viability dose-response curve” value is 1.

Take NCIH647_LUNG: the “AUC of viability dose-response curve” value was determined as 1. As for A549_LUNG, the figure is 1; as for LPS141_SOFT_TISSUE, 1.

In the case of LOXIMVI_SKIN, the “AUC of viability dose-response curve” value came to 0.845.

Regarding GIMEN_AUTONOMIC_GANGLIA, the “AUC of viability dose-response curve” value was found to be 0.616.

With EOL1_HAEMATOPOIETIC_AND_LYMPHOID_TISSUE, the “AUC of viability dose-response curve” value was 0.207. For JM1_HAEMATOPOIETIC_AND_LYMPHOID_TISSUE the value was 0.4. As to PA1_OVARY, the “AUC of viability dose-response curve” value amounted to 1. As for HT_HAEMATOPOIETIC_AND_LYMPHOID_TISSUE, the figure is 0.672; as for SNU407_LARGE_INTESTINE, 0.502. For SNU1_STOMACH the value was 1. As for BOKU_CERVIX, the figure is 0.581; as for NCIH2196_LUNG, 1; as for IM95_STOMACH, 0.57. Consider NB4_HAEMATOPOIETIC_AND_LYMPHOID_TISSUE, for which the “AUC of viability dose-response curve” value was found to be 0.277. As for HT1080_SOFT_TISSUE, the figure is 1; as for MCAS_OVARY, 1. As for 1777NRPMET_TESTIS, the figure is 0.655; as for DBTRG05MG_CENTRAL_NERVOUS_SYSTEM, 0.854. Take KYSE150_OESOPHAGUS: the “AUC of viability dose-response curve” value stood at 0.834. For MELHO_SKIN the value was 0.263; for SNU719_STOMACH, 0.969. As for COV434_OVARY, the figure is 0.556; as for SH4_SKIN, 0.409; as for H376_UPPER_AERODIGESTIVE_TRACT, 0.862. As for SNU840_OVARY, the figure is 1. Regarding KATOIII_STOMACH, the “AUC of viability dose-response curve” value stood at 0.581. As for OCIC4P_OVARY, the figure is 0.99.

As for SCC25_UPPER_AERODIGESTIVE_TRACT, the “AUC of viability dose-response curve” value stood at 1. For UACC257_SKIN the value was 1; for PK8_PANCREAS, 0.556. For NCIH1650_LUNG, the “AUC of viability dose-response curve” value was found to be 0.583.

In the case of BECKER_CENTRAL_NERVOUS_SYSTEM, the “AUC of viability dose-response curve” value was 0.88. For COV644_OVARY the value was 0.92; for SKGII_ENDOMETRIUM, 0.894; for ICC10_BILIARY_TRACT, 0.827.

In the case of H103_UPPER_AERODIGESTIVE_TRACT, the “AUC of viability dose-response curve” value was found to be 0.997. DANG_PANCREAS: the “AUC of viability dose-response curve” value was 1. On to HUG1N_STOMACH, for which the “AUC of viability dose-response curve” value came to 1. Take 8MGBA_CENTRAL_NERVOUS_SYSTEM: the “AUC of viability dose-response curve” value worked out at 0.79. For the test system TT_THYROID, the “AUC of viability dose-response curve” value was determined as 0.15. For RH4_SOFT_TISSUE, the “AUC of viability dose-response curve” value worked out at 0.308. For MSTO211H_PLEURA the value was 0.672; for TTC642_SOFT_TISSUE, 0.541. As for FTC133_THYROID, the “AUC of viability dose-response curve” value amounted to 0.549.

“WAOSEL_HAEMATOPOIETIC_AND_LYMPHOID_TISSUE”: the “AUC of viability dose-response curve” value was 0.826. For OVISE_OVARY the value was 1; for MFE296_ENDOMETRIUM, 0.514; for NCIH1573_LUNG, 0.699. For CW9019_SOFT_TISSUE the value was 0.735; for SUIT2_PANCREAS, 1. For 769P_KIDNEY the value was 0.395; for NCIH2228_LUNG, 0.91. As to TE14_OESOPHAGUS, the “AUC of viability dose-response curve” value came out at 0.86. For HS766T_PANCREAS the value was 0.73. As for IALM_LUNG, the “AUC of viability dose-response curve” value is 0.311.

GOS3_CENTRAL_NERVOUS_SYSTEM: the “AUC of viability dose-response curve” value is 0.79.

As to RHJT_SOFT_TISSUE, the “AUC of viability dose-response curve” value came to 0.512. For ICC137_BILIARY_TRACT the value was 0.501. As for T98G_CENTRAL_NERVOUS_SYSTEM, the figure is 0.8; as for ABC1_LUNG, 0.977. For SNU1196_BILIARY_TRACT, the “AUC of viability dose-response curve” value worked out at 1.

Consider MB1_THYROID, for which the “AUC of viability dose-response curve” value came to 0.776. For the test system JHH5_LIVER, the “AUC of viability dose-response curve” value was 0.614. As to “PF382_HAEMATOPOIETIC_AND_LYMPHOID_TISSUE”, the “AUC of viability dose-response curve” value came to 0.566.

As for KKU055_BILIARY_TRACT, the “AUC of viability dose-response curve” value is 0.915. For “MOLM13_HAEMATOPOIETIC_AND_LYMPHOID_TISSUE” the value was 0.356; for TTC709_SOFT_TISSUE, 0.23; for MFE280_ENDOMETRIUM, 0.581. Take UPCISCC072_UPPER_AERODIGESTIVE_TRACT: the “AUC of viability dose-response curve” value amounted to 0.625. Turning to SKNFI_AUTONOMIC_GANGLIA, the “AUC of viability dose-response curve” value stood at 0.854. With “MOLT13_HAEMATOPOIETIC_AND_LYMPHOID_TISSUE”, the “AUC of viability dose-response curve” value was determined as 1. As for JJN3_HAEMATOPOIETIC_AND_LYMPHOID_TISSUE, the figure is 0.896; as for HCC515_LUNG, 0.612. For KLE_ENDOMETRIUM the value was 0.91. With NCIH2452_PLEURA, the “AUC of viability dose-response curve” value was 1. A704_KIDNEY: the “AUC of viability dose-response curve” value was 0.942. For NCIH2023_LUNG the value was 1. As for HUPT4_PANCREAS, the figure is 0.784; as for NCIH1975_LUNG, 0.862.

Consider PATU8902_PANCREAS, for which the “AUC of viability dose-response curve” value was 0.689.

In the case of PK59_PANCREAS, the “AUC of viability dose-response curve” value came out at 0.694. In the case of HEYA8_OVARY, the “AUC of viability dose-response curve” value is 1. For DV90_LUNG the value was 0.588. Regarding KKU100_BILIARY_TRACT, the “AUC of viability dose-response curve” value worked out at 0.994. On to “SUPT11_HAEMATOPOIETIC_AND_LYMPHOID_TISSUE”, for which the “AUC of viability dose-response curve” value worked out at 1. As for MKN45_STOMACH, the figure is 0.238; as for “HS611T_HAEMATOPOIETIC_AND_LYMPHOID_TISSUE”, 0.742. On to NOZ_LIVER, for which the “AUC of viability dose-response curve” value was determined as 1. For EMTOKA_ENDOMETRIUM the value was 0.825.

CJM_SKIN: the “AUC of viability dose-response curve” value came out at 0.415. For HSC3_UPPER_AERODIGESTIVE_TRACT the value was 0.936; for OCIP5X_OVARY, 1.
